Data: ChEMBL document CHEMBL4118030, “Polyketides and Anthranilic Acid Possessing 6-Deoxy-α-l-talopyranose from a Streptomyces Species” (J Nat Prod, 2017)
Activity calls are given as the source filed them. The calls are words filed in the database; no cut-off is given here.

Tests used:
MDA-MB-231 = assay: Antiproliferative activity against human MDA-MB-231 cells after 48 hrs by MTT assay; type: functional, cell-based; settings: MDA-MB-231, 48 h
HeLa [1] = assay: Antiproliferative activity against human HeLa cells after 48 hrs by MTT assay; type: functional, cell-based
SW480 = assay: Antiproliferative activity against human SW480 cells after 48 hrs by MTT assay; type: functional, cell-based; settings: SW480, 48 h
HL-60 = assay: Antiproliferative activity against human HL60 cells after 48 hrs by EZ-Cytox cell viability assay; type: functional, cell-based; settings: HL-60, 48 h
U2OS = assay: Antiproliferative activity against human U2OS cells after 48 hrs by MTT assay; type: functional, cell-based
[2] = biological target: T1, Indoleamine 2,3-dioxygenase 1 (Homo sapiens, UniProt P14902); assay: Inhibition of ascorbic acid/methylene blue activated recombinant human IDO expressed in Escherichia coli up to 10 uM using L-Tryptophan as substrate after 60 mins by spectrophotometric method relative to control
Target sequence in this assay (P14902 whole entry, looked up): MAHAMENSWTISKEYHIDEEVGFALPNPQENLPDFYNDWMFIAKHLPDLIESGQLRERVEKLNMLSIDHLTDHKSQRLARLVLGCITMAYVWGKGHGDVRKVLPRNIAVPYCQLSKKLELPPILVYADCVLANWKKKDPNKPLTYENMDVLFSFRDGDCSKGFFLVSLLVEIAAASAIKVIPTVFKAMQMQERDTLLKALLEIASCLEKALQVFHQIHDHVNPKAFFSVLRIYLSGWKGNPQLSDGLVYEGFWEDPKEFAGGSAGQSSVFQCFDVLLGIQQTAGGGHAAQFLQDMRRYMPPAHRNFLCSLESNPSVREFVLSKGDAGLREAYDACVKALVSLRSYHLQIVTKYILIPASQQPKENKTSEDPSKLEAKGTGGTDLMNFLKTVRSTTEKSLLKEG

HeLa [3] = assay: Induction of autophagosome accumulation in human HeLa cells harboring RFP-GFP-LC3 assessed as GFP-LC3 puncta formation at 30 uM after 24 hrs by DAPI staining based fluorescence microscopic method; type: functional, cell-based
HeLa [4] = assay: Induction of autophagosome accumulation in human HeLa cells harboring RFP-GFP-LC3 assessed as increase in p62 level after 24 hrs by immunoblot method; type: functional, cell-based
HeLa [5] = assay: Induction of autophagosome accumulation in human HeLa cells harboring RFP-GFP-LC3 assessed as increase in LC3-2 level after 24 hrs by immunoblot method; type: functional, cell-based
[6] = biological target: T1, Indoleamine 2,3-dioxygenase 1; assay: Inhibition of ascorbic acid/methylene blue activated recombinant human IDO expressed in Escherichia coli using L-Tryptophan as substrate after 60 mins by spectrophotometric method
Target sequence in this assay (P14902 whole entry): as the sequence (P14902 whole entry, looked up) above

SMILES	IC50 (MDA-MB-231) [µM]	IC50 (HeLa [1]) [µM]	IC50 (SW480) [µM]	IC50 (HL-60) [µM]	IC50 (U2OS) [µM]	inhibition [2] [%]	Activity (HeLa [3])	Activity (HeLa [4])	Activity (HeLa [5])	IC50 [6] [µM]
C/C(=C\[C@H](C)[C@@H](O)[C@@H](C)/C=C/[C@@H](O)C/C=C(\C)C(=O)C[C@H](O)[C@@H](C)/C=C/C=C\C=C/C(=O)NC1=C(Cl)C(=O)c2cc(O)c(C)cc2C1=O)C(=O)O	> 100	71.4	78.1	42.2	> 100	–	–	–	–	–
C/C=C(\C)[C@H](O)[C@H](C)/C=C(C)/C=C/C/C(C)=C/Cc1nc(OC)c(OC)c(O[C@@H]2O[C@@H](C)[C@@H](O)[C@@H](O)[C@H]2O)c1C	35.1	27.3	23	24.8	29.6	< 50	Active	Dose-dependent effect	Dose-dependent effect	–
CNc1ccccc1C(=O)O[C@@H]1O[C@@H](C)[C@@H](O)[C@@H](O)[C@H]1O	> 100	> 100	> 100	> 100	> 100	< 50	–	–	–	–
COc1cccc2c1C(=O)c1c(O)c3c(c(O)c1C2=O)C[C@@](O)(C(=O)CO)C[C@@H]3O[C@H]1C[C@H](N)[C@H](O)[C@H](C)O1 [DOXORUBICIN]	0.369	0.606	0.406	0.532	0.563	–	–	–	–	–
CC1=CC(=O)c2ccccc2C1=O [MENADIONE]	–	–	–	–	–	–	–	–	–	0.37
C/C1=C/C=C\C=C\[C@H](C)[C@@H](O)CC(=O)/C(C)=C/C[C@H](O)/C=C/[C@H](C)[C@H](O)[C@@H](C)/C=C(\C)C(=O)c2c(O)c(C)cc3c2C(=O)C(Cl)=C(NC1=O)C3=O [NAPHTHOMYCIN A]	34.6	30.2	7.6	2.1	20.5	–	–	–	–	0.44
CC(=O)NC1=CC(=O)c2cc(O[C@@H]3O[C@@H](C)[C@@H](O)[C@@H](O)[C@H]3O)c(C)cc2C1=O	72.1	35	9.3	7.1	33.6	–	–	–	–	0.56
C/C(=C\[C@H](C)[C@@H](O)[C@@H](C)/C=C/[C@@H](O)C/C=C(\C)C(=O)C[C@H](O)[C@@H](C)/C=C/C=C\C=C/C(=O)Nc1c(Cl)c(O[C@@H]2O[C@@H](C)[C@@H](O)[C@@H](O)[C@H]2O)c2cc(O)c(C)cc2c1O)C(=O)O	> 100	> 100	94.3	91.4	> 100	< 50	–	–	–	–
C/C=C(\C)[C@H](O)[C@H](C)/C=C(C)/C=C/C/C(C)=C/Cc1nc(OC)c(OC)c(O)c1C [PIERICIDIN A]	> 100	84.9	82.1	82.1	91.5	< 50	Active	Dose-dependent effect	Dose-dependent effect	–
